Measurements from US7745422B2, “Bisphosphonate compounds and methods for bone resorption diseases, cancer, bone pain, immune disorders, and infectious diseases” (The Board of Trustees of the University of Illinois, priority 2004, dated 2010).
In brackets after ≈: the same amount, converted by molar mass. Where two headings read alike, the source gives them in different places.

Columns and labels:
Vγ2Vδ2 T cells [1] = conditions: TNF-α release, footnote b: data from Ref. 30; read-out: gammadelta T cell stimulation, EC50; cited from earlier work
Dictyostelium discoideum = assay: D. discoideum cell growth inhibition; type: cell-based
Text: (§1) We then investigated the activity of each compound in inhibiting the FPPS from L. major, in Dictyostelium discoideum growth inhibition and in γδ T cell activation. We used the FPPS from L. major since this enzyme is the putative bisphosphonate target in several trypanosomatid species.

L. major FPPS [2] = target: T1, L. major FPPS (Leishmania major, UniProt Q4QBL1); conditions: read-out: L. major FPPS Ki; Table 1, footnote a: data from Ref. 17; cited from earlier work
T1 sequence (Q4QBL1 1-362): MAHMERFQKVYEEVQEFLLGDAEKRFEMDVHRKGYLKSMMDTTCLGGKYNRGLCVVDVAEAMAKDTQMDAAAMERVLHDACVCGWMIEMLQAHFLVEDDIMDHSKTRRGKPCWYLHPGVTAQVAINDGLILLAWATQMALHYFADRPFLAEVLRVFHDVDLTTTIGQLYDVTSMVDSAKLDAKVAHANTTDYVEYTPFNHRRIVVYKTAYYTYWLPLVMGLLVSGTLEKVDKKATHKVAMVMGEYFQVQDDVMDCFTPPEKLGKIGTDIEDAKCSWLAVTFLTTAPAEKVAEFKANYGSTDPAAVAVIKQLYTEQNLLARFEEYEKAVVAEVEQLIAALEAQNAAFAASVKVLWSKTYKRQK

parasite cell growth = assay: Parasite cell growth inhibition; type: cell-based
Text: We explored the hypothesis of whether analogs of pyrophosphate could block pyrophosphatase enzymes and/or inhibit cellular growth or function. We used certain bisphosphonate compounds that are currently applied in bone resorption therapy. The compounds included pamidronate (Aredia®, Novartis), alendronate (Fosamax®, Merck), and risedronate (Actonel®, Procter & Gamble). […] Without wishing to be bound by a particular theory, the compounds appeared to act as inhibitors of isoprenoid biosynthesis (FIG. 6).

pyrophosphatase enzymes = assay: Pyrophosphatase inhibition; type: biochemical
Text: We explored the hypothesis of whether analogs of pyrophosphate could block pyrophosphatase enzymes and/or inhibit cellular growth or function. We used certain bisphosphonate compounds that are currently applied in bone resorption therapy.

human FPPS = target: T2, human FPPS (Homo sapiens, UniProt P14324); assay: human FPPS assay; type: biochemical
T2 sequence (P14324 1-419): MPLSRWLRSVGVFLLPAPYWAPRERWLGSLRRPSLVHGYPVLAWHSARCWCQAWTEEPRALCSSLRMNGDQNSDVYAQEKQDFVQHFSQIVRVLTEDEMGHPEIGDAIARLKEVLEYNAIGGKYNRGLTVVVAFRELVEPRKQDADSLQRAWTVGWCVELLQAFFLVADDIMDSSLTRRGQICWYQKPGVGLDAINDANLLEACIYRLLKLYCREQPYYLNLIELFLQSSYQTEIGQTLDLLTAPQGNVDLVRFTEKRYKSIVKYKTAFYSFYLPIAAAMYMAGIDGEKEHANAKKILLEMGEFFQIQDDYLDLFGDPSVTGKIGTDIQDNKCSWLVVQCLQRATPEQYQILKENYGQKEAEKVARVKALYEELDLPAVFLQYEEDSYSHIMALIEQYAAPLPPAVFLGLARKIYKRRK

Vγ2Vδ2 T cells [3] = assay: gammadelta T cell stimulation (TNF-α release assay); type: cell-based, human
Text: as §1

[4] = target: T. brucei soluble vacuolar pyrophosphatase; assay: T. brucei soluble vacuolar pyrophosphatase inhibition; type: biochemical, Trypanosoma brucei; conditions: Table 5; read-out: (9) T. brucei soluble vacuolar pyrophosphatase IC50
Text: We have obtained data for selected bisphosphonate compounds against parasites including Trypanosoma brucei, Trypanosoma cruzi, and Leishmania major. […] See Table 5 (in some instances, the same data depicted elsewhere herein, e.g., in Table 1, may be presented again to facilitate comparative analysis).

L. major FPPS [5] = target: T1, L. major FPPS; assay: biochemical; type: biochemical
Text: as §1

[6] = tested on: human nasopharyngeal carcinoma cells; assay: Toxicity testing in human nasopharyngeal carcinoma cells; type: cell-based; conditions: read-out: (5) Toxicity IC50
Protocol: We have obtained data for selected bisphosphonate compounds in the contexts of D. discoideum assays, human FPPS assays, gammadelta T cell stimulation assays, and bone resorption assays. […] Some toxicity testing was also performed. See Table 4 (in some instances, the same data depicted elsewhere herein, e.g., in Table 1, may be presented again to facilitate comparative analysis).

fetal mouse metatarsals = assay: bone resorption assay: 45Ca2+ release from 17-day old fetal mouse metatarsals; type: cell-based; conditions: Mus musculus; Table 4
Protocol: Compounds are tested in a bone resorption assay: ^45Ca^2+ release from 17-day old fetal mouse metatarsals (ref. 37).

[7] = cell growth inhibition, Table 1 and text, read-out: D. discoideum IC50
[8] = Dictyostelium discoideum, read-out: (1) D. discoideum IC50
[9] = Homo sapiens, T-cell, read-out: gammadelta T cell stimulation EC50
[10] = Table 4, read-out: (1) D. discoideum IC50
[11] = Table 4, read-out: (2) human FPPS IC50
[12] = Table 4, read-out: (3) gammadelta T cell stimulation EC50

SMILES: O=P(O)(O)C(NC1CCCCCC1)P(=O)(O)O [incadronate]
- EC50 (Vγ2Vδ2 T cells [1]): 15 µM
- IC50 (Dictyostelium discoideum; [7]): 1.6 µM
- Ki (L. major FPPS [2]): 0.023 µM

SMILES: O=P(O)(O)C(O)(Cc1cccnc1)P(=O)(O)O [risedronate]
- parasite cell growth inhibition (parasite cell growth): did inhibit
- EC50 (Vγ2Vδ2 T cells [1]): 6.2 µM
- inhibition of pyrophosphatases (pyrophosphatase enzymes): did not appear necessarily to inhibit

SMILES: O=P([O-])(O)C(O)(C[n+]1cccc(Br)c1)P(=O)(O)O (stereo not drawn) [Compound 484]
- IC50 (Dictyostelium discoideum; [8]): 3.5 µM
- IC50 (human FPPS): 2.5 µM
- EC50 (Vγ2Vδ2 T cells [3]; [9]): 4.6 µM

SMILES: Cc1cccc(Cc2ccc[n+](CC(O)(P(=O)([O-])O)P(=O)(O)O)c2)c1 (stereo not drawn) [Compound 344]
- IC50 [4]: 78 µM
- IC50 (Dictyostelium discoideum; [10]): 8.5 µM
- IC50 (Dictyostelium discoideum; [7]): 9.9 µM
- IC50 (human FPPS; [11]): 17 µM
- activity in gammadelta T cell stimulation (Vγ2Vδ2 T cells [3]; TNF-α release): poor activity
- EC50 (Vγ2Vδ2 T cells [3]; TNF-α release, Table 1 and text, read-out: gammadelta T cell stimulation, EC50): 140 µM
- EC50 (Vγ2Vδ2 T cells [3]; [12]): 140 µM
- Ki (L. major FPPS [5]; Table 1 and text, read-out: L. major FPPS Ki): 0.07 µM
- Ki (L. major FPPS [5]; Table 5, read-out: (7) L. major FPPS Ki): 0.07 µM

SMILES: O=P([O-])(O)C(C[n+]1cccc(C(F)(F)F)c1)P(=O)(O)O (stereo not drawn) [Compound 511]
- IC50 (Dictyostelium discoideum; [10]): 4.1 µM
- IC50 (human FPPS; [11]): 2.5 µM
- EC50 (Vγ2Vδ2 T cells [3]; [12]): 14 µM

SMILES: O=P([O-])(O)C(O)(C[n+]1cccc(-c2ccccc2)c1)P(=O)(O)O (stereo not drawn) [Compound 300]
- IC50 [4]: 35 µM
- IC50 [6]: 5.4 µg/mL (≈ 15 µM)
- IC50 (fetal mouse metatarsals): 0.41 µM
- IC50 (Dictyostelium discoideum; [8]): 2.8 µM
- IC50 (Dictyostelium discoideum; Dictyostelium discoideum, read-out: D. discoideum IC50): 2.8 µM
- IC50 (human FPPS): 1.7 µM
- EC50 (Vγ2Vδ2 T cells [3]; Homo sapiens, T-cell, read-out: (3) gammadelta T cell stimulation EC50): 3.7 µM
- EC50 (Vγ2Vδ2 T cells [3]; [9]): 2.1 µM
- EC50 (Vγ2Vδ2 T cells [3]; Homo sapiens, T-cell, read-out: gammadelta T cell stimulation, EC50): 3.7 µM

SMILES: NCCCC(O)(P(=O)(O)O)P(=O)(O)O [alendronate]
- parasite cell growth inhibition (parasite cell growth): did inhibit
- EC50 (Vγ2Vδ2 T cells [1]): 52 µM
- inhibition of pyrophosphatases (pyrophosphatase enzymes): did not appear necessarily to inhibit

SMILES: CCOc1cccc(-c2ccc[n+](CC(P(=O)([O-])O)P(=O)(O)O)c2)c1 (stereo not drawn) [Compound 588]
- IC50 (Dictyostelium discoideum; [10]): 3.3 µM
- IC50 (human FPPS; [11]): 11 µM
- EC50 (Vγ2Vδ2 T cells [3]; [12]): 120 µM
